Among the data in US7459522B2 (Affymax, Inc., priority 1999, dated 2008) are EC50, Kd and in vitro bioactivity values, retold here.

Bridge positions count the residues as written; N and C are the ends. Square brackets hold non-standard residues; d marks the D form. Ends that are not written are not given here. I, II: the chains in the order shown. 1Nal = N[C@@H](Cc1cccc2ccccc12)C(=O)O; βAla = NCCC(=O)O

For one assay, the target named is T1, huEPOR (Homo sapiens, UniProt P19235).
T1 construct: expressed in transfected cells; host or cells: Ba/F3 (murine pro-B line, own knowledge) carrying huEPOR
T1 sequence (P19235 25-508): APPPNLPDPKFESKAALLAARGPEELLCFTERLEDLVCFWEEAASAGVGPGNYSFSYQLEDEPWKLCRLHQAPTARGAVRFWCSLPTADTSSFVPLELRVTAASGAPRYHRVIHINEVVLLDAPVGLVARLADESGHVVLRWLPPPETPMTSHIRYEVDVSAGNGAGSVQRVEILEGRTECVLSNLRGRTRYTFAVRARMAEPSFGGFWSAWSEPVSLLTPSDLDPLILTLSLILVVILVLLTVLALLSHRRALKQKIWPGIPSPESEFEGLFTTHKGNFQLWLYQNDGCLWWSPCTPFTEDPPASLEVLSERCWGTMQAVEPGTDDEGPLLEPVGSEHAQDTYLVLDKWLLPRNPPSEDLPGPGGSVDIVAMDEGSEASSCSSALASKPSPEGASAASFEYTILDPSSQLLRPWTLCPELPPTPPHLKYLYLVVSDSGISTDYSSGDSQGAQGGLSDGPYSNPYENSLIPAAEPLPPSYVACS
In words: Ba/F3-huEPOR cell proliferation assay. The format is cell-based. To be noted: for EC50: concentration required to produce 50% of the maximal activity obtained with recombinant erythropoietin. The source says:
The protocol for each assay is described in Wrighton et al. (1997) Nature Biotechnology 15:1261-1265, and in U.S. Pat. Nos. 5,773,569 and 5,830,851, both to Wrighton et al. and cited earlier herein.

A further assay has as its target EPO receptor. Particulars: single class of binding sites, 300 to 600 per cell surface; cited from earlier work.

A word on the EC50: it is the concentration needed to bring the measured effect to its halfway point. “I: GGTYSCHFGPLT[1Nal]VCRPQGG[βAla]K-NH2 / II: GGTYSCHFGPLT[1Nal]VCRPQGG[βAla] (amide I:22-II:C; cysteines drawn unpaired) [Example 3]”: the EC50 on huEPOR is 5 nM.

Usually Kd stands for the equilibrium constant for the complex coming apart. For Erythropoietin [EPO], the Kd on EPO receptor was ~0.8 nM.

Take “I: GGTYSCHFGPLT[1Nal]VCRPQGGK-NH2 / II: GGTYSCHFGPLT[1Nal]VCRPQGG (disulfide I:6-I:15, II:6-II:15; amide I:21-II:C) [Example 6]”: the in vitro bioactivity entry on huEPOR (FIG. 5, Isomer 1 compared with Isomer 2, Isomer 3 and the other compounds) is listed as “noticeably higher”.

As to “I: GGTYSCHFGPLT[1Nal]VCRPQGGK-NH2 / II: GGTYSCHFGPLT[1Nal]VCRPQGG (amide I:21-II:C; cysteines drawn unpaired) [Example 1]”, the concentration giving a half-maximal response (EC50) at huEPOR was 6 nM.
